Measured values: patent US20250127787A1, “METHODS FOR TREATING PERIPHERAL NEUROPATHY” (University of Pittsburgh - Of the Commonwealth System of …, priority 2021, published 2025)

What was measured:
PGP 9.5 = PGP 9.5 immunocytochemistry of CYP-CIPN rat epidermis (nerve terminals, edema); type: in vivo; details: fluorescent images, oral 8-AG
Description: Animals. This study employed female Harlan Sprague Dawley (HSD) rats (3-4 mo; Envigo, Indianapolis, IN) and were divided into the following groups: 1) Control, 2) Cyclophosphamide (CYP, 75 mg/kg i.p. in saline vehicle; administered on days 0, 3 and 6); 3) 8-aminoguanine (8-AG; 5 mg/kg/day in drinking water; beginning 2 weeks prior to CYP and continuing until sacrifice (day 8)). The dose of 8-AG is based on our preliminary and published experiments. […] The investigation conforms to the Guide for the Care and Use of Laboratory Animals published by the US National Institutes of Health (NIH Publication No. 85-23, revised 1996). In addition, all tissues (dorsal root ganglion, spinal cord, peripheral nerves and hindpaw epidermis) were removed from isoflurane anesthetized rats and the tissue was used for various experimental approaches as described below. At the end of tissue removal, animals were sacrificed by thoracotomy.
Immunocytochemistry: A portion of tissues (a 3 mm biopsy from the rat hindpaw food pad or epidermis) is placed overnight in fixative (4% PFA) and cryoprotected (30% sucrose-phosphate buffered saline). Fluorescence immunocytochemistry was used to process cross-sections (20 μm) using antibodies (validated in rat tissue) against PGP 9.5 (Invitrogen PA5-29012, neuron specific protein; 1:500 dilution). […]

CD68 = CD68 expression in PAC-CIPN rat spinal cord, Western immunoblotting; type: in vivo; details: 8-AG 5 mg/kg/day in drinking water
Description: Animals: This study employed female Harlan Sprague Dawley (HSD) rats (3-4 mo; Envigo, Indianapolis, IN) and were divided into the following groups: 1) Control, 2) Cyclophosphamide (CYP, 75 mg/kg i.p. in saline vehicle; administered on days 0, 3 and 6 until sacrifice on day 8); 4) Paclitaxel (2 mg/kg i.p., 2 mg/kg i.p. in saline from a stock solution of 50/50 CremophorEL/ethanol); administered on days 0, 2, 4 and 6 until sacrifice on day 8; 4) 8-aminoguanine (8-AG; 5 mg/kg/day in drinking water; beginning 2 weeks prior to either CYP or PAC and continuing until sacrifice (day 8)). The dose of 8-AG was based on the experiments described above. […] All tissues (spinal cord and hindpaw epidermis) were removed from isoflurane anesthetized rats and the tissue was used for various experimental approaches as described below. At the end of tissue removal, animals were sacrificed by thoracotomy. […]

Structure (SMILES): Nc1nc2[nH]c(N)nc2c(=O)[nH]1 [8-AG, 8-Aminoguanine]
- effect on CYP-induced gross edema (PGP 9.5): normalized
- effect on CYP-induced neural damage (ragged/damaged fine nerve terminals, PGP 9.5 distribution) (PGP 9.5): normalized
- effect on PAC-induced increase in CD68 expression (CD68): significantly reduced
